Consider one compound from US20130287918A1, “MICROBICIDAL COMPOSITION” (DUPONT NUTRITION DIOSCIENCES APS, priority 2010, published 2013).

A value given as a limit tells only on which side of the number the result lay.

Common to all, as to type: cell-based
In test [1] the test system is Aspergillus versicolor DCS 1069. Nature of the test: Minimal Inhibition Concentration Assay (MIC), 96 well liquid based. Particulars: DCS1069, in blend FP1000S, read-out: actual presence of the individual compound in the blend at MIC level. The source says: (§1) The target strains used for assessment of antimicrobial activity are isolates of different origin e.g. food spoilage isolates, spoilage organisms provided by a customer, national strain collections (e.g. DSMZ, ATCC) collected in the in house Danisco Culture Collection (DCS) (Danisco, Brabrand, Denmark), maintained at −86′C in suitable broth containing glycerol 50% (v/v). The strains were chosen to represent Gram negative and fungal strains. All species used were aerobic. Before each experiment, stock cultures were propagated through two consecutive growth cycles in suitable media and temperature. The overnight cultures are diluted in saline solution to obtain working cultures.
(§2) Mould spore inoculums were prepared as follows: approx. 2 ml of sterile demineralised water was used to wash the spores off an out-grown mould (minimum 5 day old plate). This suspension is transferred to a sterile container.
(§3) Yeast and mould strains were incubated at 25° C., and bacterial isolates were grown at 30° C. under aerobic conditions depending on the preferred conditions for the particular strain (Method no AP-002).
(§4) The Minimal Inhibition Concentration Assay (MIC) is a 96 well liquid based assay developed for an automated assessment system and performed essentially as described in (Method no AP-003). Indicator strains (table 2) are tested for inhibition of growth by the putative anti-microbial substances and combinations thereof, using a wide concentration range (depending on the compound), in this case by performing a ⅔-dilution series of each sample at pH 6.0 (±0.2)). From a 10 fold diluted overnight culture 5 μl of each strain was inoculated in one well corresponding to an approximate inoculation density of 10^3-10^4 cells/well. Media used were YM-broth for yeast and moulds and CASO-broth for bacterial isolates. Strains were incubated at 24° C. or 30° C. for 24 to 48 hours depending on the strain. The increase in optical density (O.D.) after incubation is compared to a growth control to estimate whether the substance has a bacteriostatic effect and to determine the MIC. […]

Test [2] has as its system Aspergillus parasiticus DCS 709. Described as above. Particulars: DCS709, in blend FP1000S, read-out: actual presence of the individual compound in the blend at MIC level.
Description: as §1, §2, §3, §4

The subject of test [3] is Aspergillus niger DCS 1115. The test is described as above. As to conditions: DCS1115, in blend FP1000S, read-out: actual presence of the individual compound in the blend at MIC level.
Description: as §1, §2, §3, §4

Test [4] relates to Rhodotorula glutinis DCS 606. Described as above. As to conditions: DCS606, in blend FP1000S, read-out: actual presence of the individual compound in the blend at MIC level.
Description: as §1, §3
(§5) The Minimal Inhibition Concentration Assay (MIC) is a 96 well liquid based assay developed for an automated assessment system and performed essentially as described in (Method no AP-003). Indicator strains (table 2) are tested for inhibition of growth by the putative anti-microbial substances and combinations thereof, using a wide concentration range (depending on the compound), in this case by performing a ⅔-dilution series of each sample at pH 6.0 (±0.2)). From a 10 fold diluted overnight culture 5 μl of each strain was inoculated in one well corresponding to an approximate inoculation density of 10^3-10^4 cells/well. Media used were YM-broth for yeast and moulds and CASO-broth for bacterial isolates. Strains were incubated at 24° C. or 30° C. for 24 to 48 hours depending on the strain. The increase in optical density (O.D.) after incubation is compared to a growth control to estimate whether the substance has a bacteriostatic effect and to determine the MIC. MIC is defined as the lowest concentration of the antimicrobial that will inhibit measurable growth. A bacteriostatic effect is defined as the OD620 being less than or equal to 20% of the growth control after incubation.
(§6) To obtain more accurate estimates of the values, an Excel macro was used to process the raw data. The macro scans the raw data and finds the two concentrations that lie on either side of the O.D. 20% threshold value. It then pinpoints the actual concentration where the O.D. crosses the threshold, using linear correlation. All data are presented as the mean values of duplicates for each microorganism.
(§7) The MIC assays were run on a fully automated assessment system consisting of a 9-hotel Cytohotel (Thermo), a Biomek FxP pipetting robot (Beckman Coulter), an ORCA robotic arm on a 3 meter rails (Beckman Coulter), 2 Synergy HT spectrophotometers (Biotek), a Cytomat 6001 incubator (Thermo) and a Cytomat 2C incubator (Thermo).

Test [5] deals with Candida tropicalis DCS 604. Described as above. As to conditions: DCS604, in blend FP1000S, read-out: actual presence of the individual compound in the blend at MIC level.
Description: as §1, §3, §5, §6, §7

For test [6], the system named is Salmonella enteritidis DCS 1152. The description is as above. Particulars: Salmonella enterica, in blend FP1000S, read-out: actual presence of the individual compound in the blend at MIC level.
Description: as §1, §3, §5, §6, §7

Test [7] concerns Pseudomonas fluorescens DCS 428. Described as above. Particulars: DCS428, in blend FP1000S, read-out: actual presence of the individual compound in the blend at MIC level.
Description: as §1, §3, §5, §6, §7

The test system of a further test is Escherichia coli DCS 495. The description is as above. As to conditions: DCS495, read-out: actual presence of the individual compound in the blend at MIC level.
Description: as §1, §3, §5, §6, §7

For test [8], the system named is Candida parapsilosis DCS 1090. The test is described as above. Particulars: Lodderomyces parapsilosis, DCS1090; in blend FP1000S; read-out: actual presence of the individual compound in the blend at MIC level.
Description: as §1, §3, §5, §6, §7

For test [9], the system named is Debaryomyces hansenii DCS 605. Described as above. As to conditions: DCS605, in blend FP1000S, read-out: actual presence of the individual compound in the blend at MIC level.
Description: as §1, §3, §5, §6, §7

For test [10], the system named is Saccharomyces cerevisiae DCS 599. Described as above. As to conditions: DCS599, in blend FP1000S, read-out: actual presence of the individual compound in the blend at MIC level.
Description: as §1, §3, §5, §6, §7

The next test concerns Pichia anomala DCS 603. Described as above. As to conditions: Hansenula anomala, DCS603; in blend FP1000S; read-out: actual presence of the individual compound in the blend at MIC level.
Description: as §1, §3, §5, §6, §7

The next test deals with Saccharomyces servazzii. The test can be described thus: In vitro susceptibility of contaminant yeast by minimal inhibition concentrations. Particulars: MicroGARD 200 at 1% (w/v); allyl isothiocyanate 0.01%; FP 1000-D1 at 1% (w/v). Here is the method: The dominating yeast in the control batch was traced back to Pichia spp., likely to be the added DCS 1175 strain. At what time point the contaminant yeast occurred is not known. The contaminant yeast. Saccharomyces servazzii, was tested in vitro for susceptibility towards MicroGARD® 200, allyl isothiocyanate, and the FP1000 variant FP 1000-D1 by determination of minimal inhibition concentrations (data not shown) The results confirmed a tolerance of the yeast against MicroGARD® 200 at 1% (w/v) and susceptibility towards allyl isothiocyanate 0.01% and FP 1000-D1 at 1% (w/v), respectively. Consequently, although eventually present in all batches, Saccharomyces servazzii could have been suppressed in the preserved batches, but was able to outgrow in batch D. The high acetic acid concentration in the unpreserved batch A and the competing yeast flora could have caused suppression of the contaminant in those samples.

With `C=CCN=C=S` [AITC, allyl isothiocyanate], the MIC (in general, the least concentration at which growth counts as inhibited) in test [1] is 143 µg/mL; in [2] it was 38 µg/mL; in test [3] it was 106 µg/mL; in test [4], 200 µg/mL; in test [5] it was 235 µg/mL; in test [6], greater than 700 µg/mL. Moreover, the MIC is 412 µg/mL in test [7]; greater than 700 µg/mL with Escherichia coli DCS 495; 67 µg/mL in test [8]; 213 µg/mL in test [9]; 196 µg/mL in test [10]; 380 µg/mL in the test on Pichia anomala DCS 603. Further, the “in vitro susceptibility of contaminant yeast (data not shown)” value in the test on Saccharomyces servazzii was “susceptibility”.
